pIC50: −log10 of the molar value. Calls of active or inactive are those of the source. The calls are words filed in the database; no cut-off is given here. Positions of bridges follow the written chain, without caps; N, C: chain ends. Residues, ends and D or L forms follow the SMILES beside them.
Key:
[1] = system: MDA-MB-231; test: Activation of CD95 cell death pathway in Fas-resistant human MDA-MB-231 cells pretreated for 6 hrs followed by treated with anti-Fas antibody assessed as increase in CD95 expression measured after 24 hrs by FACS analysis; type: functional, cell-based
[2] = system: PC-3; test: Cytotoxicity against human PC-3 cells assessed as dead cells at 30 uM measured after 24 to 72 hrs by FACS based Calcein A/EtBr-dimer LIVE/DEAD cell staining kit; type: functional; conditions: time 24-72 hrs
[3] = system: PC-3; test: Cytotoxicity against human PC-3 cells assessed as dead cells at 60 uM measured after 24 to 72 hrs by FACS based Calcein A/EtBr-dimer LIVE/DEAD cell staining kit; type: functional; conditions: time 24-72 hrs
[4] = system: PC-3; test: Cytotoxicity against human PC-3 cells assessed as dead cells measured after 24 to 72 hrs by FACS based Calcein A/EtBr-dimer LIVE/DEAD cell staining kit; type: functional
[5] = system: MDA-MB-231; test: Cytotoxicity against human MDA-MB-231 cells assessed as cell death measured by MTT assay; type: functional, cell-based
[6] = system: PC-3; test: Cytotoxicity against human PC-3 cells assessed as cell death measured by MTT assay; type: functional, cell-based
[7] = system: DU-145; test: Cytotoxicity against human DU-145 cells assessed as cell death measured by MTT assay; type: functional, cell-based
[8] = system: LNCaP; test: Cytotoxicity against human LNCaP cells assessed as cell death measured by MTT assay; type: functional, cell-based
[9] = Cytotoxicity against human ABC-TC3995 cells assessed as cell death measured by MTT assay; type: functional, cell-based
[10] = Cytotoxicity against human iPSC cells assessed as cell death measured by MTT assay; type: functional, cell-based
[11] = system: MDA-MB-231; test: Cytotoxicity against human MDA-MB-231 cells assessed as cell death in presence of doxorubicin measured by MTT assay; type: functional, cell-based
[12] = system: PC-3; test: Cytotoxicity against human PC-3 cells assessed as cell death in presence of doxorubicin measured by MTT assay; type: functional, cell-based
[13] = system: DU-145; test: Cytotoxicity against human DU-145 cells assessed as cell death in presence of doxorubicin measured by MTT assay; type: functional, cell-based
[14] = system: LNCaP; test: Cytotoxicity against human LnCAP cells assessed as cell death in presence of doxorubicin measured by MTT assay; type: functional, cell-based
[15] = Cytotoxicity against human ABC-TC3995 cells assessed as cell death in presence of doxorubicin measured by MTT assay; type: functional, cell-based
[16] = Cytotoxicity against human iPSC cells assessed as cell death in presence of doxorubicin measured by MTT assay; type: functional, cell-based
[17] = system: MDA-MB-231; test: Cytotoxicity against human MDA-MB-231 cells assessed as cell death in presence of docetaxel measured by MTT assay; type: functional, cell-based
[18] = system: PC-3; test: Cytotoxicity against human PC-3 cells assessed as cell death in presence of docetaxel measured by MTT assay; type: functional, cell-based
[19] = system: DU-145; test: Cytotoxicity against human DU-145 cells assessed as cell death in presence of docetaxel measured by MTT assay; type: functional, cell-based
[20] = system: LNCaP; test: Cytotoxicity against human LNCaP cells assessed as cell death in presence of docetaxel measured by MTT assay; type: functional, cell-based
[21] = Cytotoxicity against human ABC-TC3995 cells assessed as cell death in presence of docetaxel measured by MTT assay; type: functional, cell-based
[22] = Cytotoxicity against human iPSC cells assessed as cell death in presence of docetaxel measured by MTT assay; type: functional, cell-based
[23] = system: MDA-MB-231; test: Synergistic cytotoxicity against Fas-resistant human MDA-MB-231 cells assessed as cell death at 10 uM in presence of 1 to 3 ug/ml doxorubicin measured after 24 to 72 hrs by fluorescent microscopy; type: functional, cell-based; conditions: time 24-72 hrs
[24] = system: MDA-MB-231; test: Synergistic cytotoxicity against Fas-resistant human MDA-MB-231 cells assessed as cell death at 10 uM in presence of 3 ug/ml doxorubicin measured after 24 to 72 hrs by fluorescent microscopy; type: functional; conditions: time 24-72 hrs
[25] = system: MDA-MB-231; test: In vivo antitumor activity against human MDA-MB-231 cells expressing FLuc-EGFP fusion protein xenografted in NOD-SCID mouse assessed as tumor regression at 50 mg/kg, ip measured upto day 13 by optical imaging based assay relative to control; type: functional, organism-based; conditions: time 13.0 day
[26] = system: MDA-MB-231; test: In vivo antitumor activity against human MDA-MB-231 cells expressing FLuc-EGFP fusion protein xenografted in NOD-SCID mouse assessed as tumor regression at 100 mg/kg, ip measured upto day 13 by optical imaging based assay relative to control; type: functional, organism-based; conditions: time 13.0 day
[27] = system: MDA-MB-231; test: In vivo antitumor activity against human MDA-MB-231 cells expressing FLuc-EGFP fusion protein xenografted in NOD-SCID mouse assessed as tumor regression at 200 mg/kg, ip measured upto day 13 by optical imaging based assay relative to control; type: functional, organism-based; conditions: time 13.0 day
[28] = system: MDA-MB-231; test: In vivo antitumor activity against human MDA-MB-231 cells expressing FLuc-EGFP fusion protein xenografted in NOD-SCID mouse assessed as loss of cellularity of tumor at 200 mg/kg, ip measured upto day 13 by H and E staining based assay; type: functional, organism-based
[29] = Toxicity in NOD-SCID mouse xenografted in human MDA-MB-231 cells assessed as heart histology at 200 mg/kg, ip measured upto day 13 by H and E staining based assay; type: organism-based; conditions: in vivo
[30] = Toxicity in NOD-SCID mouse xenografted in human MDA-MB-231 cells assessed as liver histology at 200 mg/kg, ip measured upto day 13 by H and E staining based assay; type: organism-based; conditions: in vivo
[31] = Toxicity in NOD-SCID mouse xenografted in human MDA-MB-231 cells assessed as kidney histology at 200 mg/kg, ip measured upto day 13 by H and E staining based assay; type: organism-based; conditions: in vivo, 312 h, time 13 day

CC[C@H](C)[C@H](NC(=O)[C@H](CCCCN)NC(=O)[C@@H](NC(=O)[C@H](Cc1ccccc1)NC(=O)[C@@H](NC(=O)[C@@H]1CCCN1C(=O)[C@H](CS)NC(=O)[C@H](C)NC(=O)[C@H](CO)NC(=O)[C@H](Cc1ccc(O)cc1)NC(=O)[C@H](CC(C)C)NC(=O)[C@H](CS)NC(=O)[C@H](CCC(N)=O)NC(=O)CNC(=O)CNC(=O)[C@H](CO)NC(=O)[C@H](CO)NC(=O)[C@@H](NC(=O)[C@H](CS)NC(=O)[C@H](CC(N)=O)NC(=O)[C@H](Cc1ccc(O)cc1)NC(=O)[C@H](Cc1c[nH]cn1)NC(=O)[C@@H](N)CC(=O)O)C(C)C)[C@@H](C)CC)[C@@H](C)O)C(=O)N[C@@H](CCC(N)=O)C(=O)NCC(=O)N[C@H](C(=O)N[C@@H](CS)C(=O)N[C@@H](Cc1ccc(O)cc1)C(=O)N[C@@H](CCCNC(=N)N)C(=O)NCC(=O)N[C@@H](CCCCN)C(=O)N[C@@H](C)C(=O)N[C@@H](CCCCN)C(=O)N[C@@H](CS)C(=O)N[C@@H](CS)C(=O)N[C@@H](CCCCN)C(=O)O)[C@@H](C)O (H-DHYNCVSSGGQCLYSACPIFTKIQGTCYRGKAKCCK-OH)
Activity [1]: inactive

CC[C@H](C)[C@@H]1NC(=O)[C@H](CCCCN)NC(=O)[C@H]([C@@H](C)O)NC(=O)[C@H](Cc2ccccc2)NC(=O)[C@H]([C@@H](C)CC)NC(=O)[C@@H]2CCCN2C(=O)[C@@H]2CSSC[C@@H]3NC(=O)[C@H](CCCCN)NC(=O)[C@H](C)NC(=O)[C@H](CCCCN)NC(=O)CNC(=O)[C@H](CCCNC(=N)N)NC(=O)[C@H](Cc4ccc(O)cc4)NC(=O)[C@H](CSSC[C@H](NC(=O)[C@H](CCC(N)=O)NC(=O)CNC(=O)CNC(=O)[C@H](CO)NC(=O)[C@H](CO)NC(=O)[C@H](C(C)C)NC(=O)[C@@H](NC(=O)[C@H](CC(N)=O)NC(=O)[C@H](Cc4ccc(O)cc4)NC(=O)[C@H](Cc4c[nH]cn4)NC(=O)[C@@H](N)CC(=O)O)CSSC[C@@H](C(=O)N[C@@H](CCCCN)C(=O)O)NC3=O)C(=O)N[C@@H](CC(C)C)C(=O)N[C@@H](Cc3ccc(O)cc3)C(=O)N[C@@H](CO)C(=O)N[C@@H](C)C(=O)N2)NC(=O)[C@H]([C@@H](C)O)NC(=O)CNC(=O)[C@H](CCC(N)=O)NC1=O (H-DHYNCVSSGGQCLYSACPIFTKIQGTCYRGKAKCCK-OH; disulfide 5-35, 12-27, 17-34)
Activity [2]: 63.4% | Activity [3]: 97.2% | pIC50 [4]: 4.70 | pIC50 [5]: 4.61 | pIC50 [6]: 4.58 | pIC50 [7]: 5.24 | pIC50 [8]: 4.91 | pIC50 [9]: < 3.60 | pIC50 [10]: < 3.60 | pIC50 [11]: 5.42 | pIC50 [12]: 6.02 | pIC50 [13]: 6.60 | pIC50 [14]: 6.96 | pIC50 [15]: 4.05 | pIC50 [16]: 4.02 | pIC50 [17]: 5.19 | pIC50 [18]: 5.92 | pIC50 [19]: 6.35 | pIC50 [20]: 6.82 | pIC50 [21]: 4.10 | pIC50 [22]: 4.07 | Activity [23]: Active | Activity [24]: >90% | Activity [1]: Dose-Dependent Effect | Activity [25]: inactive | Activity [26]: Active | Activity [27]: Active | Activity [28]: Active | Activity [29]: Non-Toxic | Activity [30]: Non-Toxic | Activity [31]: Non-Toxic

CC(=O)O[C@@]12CO[C@@H]1C[C@H](O)[C@@]1(C)C(=O)[C@H](O)C3=C(C)[C@@H](OC(=O)[C@H](O)[C@@H](NC(=O)OC(C)(C)C)c4ccccc4)C[C@@](O)([C@@H](OC(=O)c4ccccc4)[C@H]21)C3(C)C [DOCETAXEL ANHYDROUS]
pIC50 [5]: 4.41 | pIC50 [6]: 4.90 | pIC50 [7]: 5.27 | pIC50 [8]: 4.91 | pIC50 [9]: 4.78 | pIC50 [10]: 4.73

COc1cccc2c1C(=O)c1c(O)c3c(c(O)c1C2=O)C[C@@](O)(C(=O)CO)C[C@@H]3O[C@H]1C[C@H](N)[C@H](O)[C@H](C)O1 [DOXORUBICIN]
pIC50 [5]: 4.33 | pIC50 [6]: 4.76 | pIC50 [7]: 4.91 | pIC50 [8]: 5.97 | pIC50 [9]: 4.90 | pIC50 [10]: 5.17

From ChEMBL document CHEMBL5550223, “Restoration of the Lost Human Beta Defensin-1 Protein in Cancer as a Strategy to Improve the Efficacy of Chemotherapy” (J Med Chem, 2024)
